Assays:
h5-HT2A [1] = target: T1, h5-HT2A (Homo sapiens, UniProt P28223); assay: β-arrestin 2 recruitment (NanoBiT), h5-HT2A; type: cell-based; set-up: expressed in transfected cells; settings: for Emax: read-out: β-arrestin 2 recruitment Emax h5-HT2A (95% CI)
Experimental: Activation of h5-HT2A, h5-HT2B, and h5-HT2C receptors was examined by measuring the accumulation of inositol monophosphate (IP1) as a marker for Gαq-mediated signaling. For h5-HT2A, additional assays measured β-arrestin 2 recruitment and arachidonic acid release, the latter serving as a marker of Gαi/o,12/13 activation. The methodology is described in detail in the Supplementary information.
The IC50 values from the radioligand binding assays were determined by nonlinear regression, using three independent concentration-response curves fitted to a one-site model. The Cheng-Prusoff equation was used to calculate Kᵢ values for the competing ligands. EC50 values were determined by applying nonlinear regression to concentration-response curves. Bias factors (β) were calculated based on the relative intrinsic activity approach. More detailed information can be found in the Supplementary information. Mean values for total number of HTR, change in body temperature from pre to post session (Δ°C), and total distance traveled (cm) for each drug dose were compared (p < 0.05) via Welch’s ANOVA with Dunnett’s T3 post test, comparing all doses to respective vehicle controls (0 mg/kg). Welch’s ANOVA with Dunnett’s T3 post test was also used to compare drug concentrations, but the data were compared to DOM in this case. Dose–response relationships for HTR and locomotor activities were plotted using bell-shaped curve fits, while temperature change data were plotted using four-parameter non-linear regression curve fits. The ascending phase of the HTR curve for each drug was used to determine ED50 potency values from four parameter non-linear regression fits. For combined DOM and DOAM administration, the plasma, brain tissue, and brain dialysate drug concentrations were compared using paired t-tests (p < 0.05). […]
the β-arrestin 2 molecule in the NanoBiT system) were seeded at a density of 50,000 cells per well in poly - D-lysine-coated 96-well plates in medium containing 10% dialyzed FBS. The plate was then incubated at […]
The following day, the cells were washed twice with 150 µL HBSS, and 100 µL HBSS was subsequently added to each well. Thereafter, 25 µL of substrate (1 :20 diluted in buffer) was added, and […]
agonist solutions was added, and the signal was monitored for 2 h. Drug dilutions in HBSS were made from 10 mM stock solutions in DMSO , yielding concentration ranges from 10 µM to 10 pM. All concentrations were run in duplicate and included the appropriate solvent controls. Efficacy was normalized to 5 -HT […]
3.2.3 Arachidonic acid release
Arachidonic acid release was assessed as a marker for Gαi/o,12/13 mediated signaling.
NIH/3T3 cells stably expressing the 5 -HT2A receptor were seeded at a density of 75,000 cells per well in a poly-D-lysine-coated 48-well plate. The following day, the cells were labeled with 300 μL [ 3H]arachidonic […]
Thereafter, the cells were washed 3 times for
(10 mM) of test substances were prepared in DMSO. The final dilution series of test substances dissolved […]
Thereafter, the plate was put on ice, and 400 μL incubation supernatant per well was transferred int o scintillation vials containing scintillation fluid (Ultimagold, Perkin Elmer, Schwerzenbach, Switzerland). The remaining supernatant was removed, and the cells were lysed with 1% sodium dodecyl sulfate lysis buffer. The obtained cell lysate was transferred into scintillation vials containing scintillation fluid. Radioactivity was measured on a liquid scintillation counter (Packard 1900 TR Tri-Carb Liquid Scintillation Counter; Packard Instrument Company). Efficacy was normalized to 5-HT activity.
3.2.4 Calculation of bias factors […]
using 5-HT as the reference agonist.
RApathway = EC50, i = EC50, ref×Emax,i […]

h5-HT2A [2] = target: T1, h5-HT2A; assay: IP1 formation (Gαq-mediated signaling), h5-HT2A; type: cell-based; set-up: expressed in transfected cells; host or cells: HEK 293 cells (membrane preparation); settings: for Emax: read-out: IP1 formation Emax h5-HT2A (95% CI)

T1 sequence (P28223 whole entry, looked up): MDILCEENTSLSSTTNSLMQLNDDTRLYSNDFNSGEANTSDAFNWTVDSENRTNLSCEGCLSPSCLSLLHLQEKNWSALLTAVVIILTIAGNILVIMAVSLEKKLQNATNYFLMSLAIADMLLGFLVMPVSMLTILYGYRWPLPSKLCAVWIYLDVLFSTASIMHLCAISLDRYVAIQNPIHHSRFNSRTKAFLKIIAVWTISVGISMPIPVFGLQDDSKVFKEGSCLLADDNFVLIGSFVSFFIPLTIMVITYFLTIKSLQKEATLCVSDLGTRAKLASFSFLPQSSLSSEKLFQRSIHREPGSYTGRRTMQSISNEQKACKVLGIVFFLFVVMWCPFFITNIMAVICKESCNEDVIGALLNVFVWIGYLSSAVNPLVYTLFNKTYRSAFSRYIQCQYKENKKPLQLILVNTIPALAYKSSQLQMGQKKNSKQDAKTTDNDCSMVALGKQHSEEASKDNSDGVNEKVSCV

| SMILES | Agonist type in the β-arrestin 2 recruitment assay at the 5-HT2A receptor (h5-HT2A [1]) | EC50 (h5-HT2A [1]) [µM] | Emax (h5-HT2A [1]) [%] | Agonist type for Gαq signaling at the 5-HT2A receptor (h5-HT2A [2]) | EC50 (h5-HT2A [2]) [µM] | Emax (h5-HT2A [2]) [%] |
| --- | --- | --- | --- | --- | --- | --- |
| CCc1cc(OC)c(CC(C)N)cc1OC (stereo not drawn) [DOET, 4-ethyl-2,5-dimethoxyamphetamine] | full agonists | 0.012 | 99 | high efficacy partial agonists | 0.012 | 93 |
| CCCCc1cc(OC)c(CC(C)N)cc1OC (stereo not drawn) [DOBU, 4-butyl-2,5-dimethoxyamphetamine] | full agonists | 0.024 | 96 | high efficacy partial agonists | 0.0028 | 90 |
| CCCc1cc(OC)c(CC(C)N)cc1OC.Cl (stereo not drawn) [DOPR, 4-propyl-2,5-dimethoxyamphetamine hydrochloride] | full agonists | 0.0093 | 105 |  | 0.0019 | 96 |
| COc1ccc(OC)c(CC(C)N)c1.Cl (stereo not drawn) [2,5-DMA, 2,5-Dimethoxyamphetamine hydrochloride] |  |  | 83 |  |  | 99 |
| COc1cc(CC(C)N)c(OC)cc1C (stereo not drawn) [DOM, 4-methyl-2,5-dimethoxyamphetamine] | full agonists | 0.055 | 97 | high efficacy partial agonists | 0.021 | 92 |
| CCCCCc1cc(OC)c(CC(C)N)cc1OC (stereo not drawn) [DOAM, 4-amyl-2,5-dimethoxyamphetamine] |  | 0.056 | 85 | high efficacy partial agonists | 0.0081 | 83 |

— article PMC12916490 (Molecular Psychiatry, 2025)
